Results on 24 compounds are retold here after patent publication US20230348493A1, “COMPOUND FOR ADJUSTING ACTIVITY OF NMDA RECEPTOR, AND PHARMACEUTICAL COMPOSITION AND USE THEREOF” (BEIJING GREATWAY PHARMACEUTICAL TECHNOLOGY CO., LTD., priority 2020, published 2023).

In assay [1] the target is T1, NMDA receptor (Rattus norvegicus, UniProt P35439).
T1 construct: After the rats were decapitated, the prefrontal cortex and hippocampus were rapidly separated on ice; from tissue; host or cells: SD male rat prefrontal cortex and hippocampus, crude synaptosomes
Put plainly: Inhibition of [3H]-MK-801 binding to rat crude synaptosomes (receptor ligand binding assay). The method, then:
The affinity of the tested compounds on NMDA receptor was researched by receptor ligand binding assays.
Ten SD male rats of SPF grade were ordered and acclimated for 7 days for future use.
(§1) After the rats were decapitated, the prefrontal cortex and hippocampus were rapidly separated on ice and weighed, 10 volumes of 50 mM Tris-HCl buffer (50 mM Tris-HCl, 5 mM MgCl2·6H2O, 1 mM EDTA, 0.5% (W/V) BSA, 1 mM PMSF, 0.32 M sucrose, pH 7.4) was added, and the mixture was homogenized for five times at 1500 revolutions/min with 30 s each time. A homogenate was centrifuged for 10 min at 1000×g, and a supernatant was taken and centrifuged for 10 min at 40,000×g, the precipitates were collected, re-suspended with volumes of Tris-HCl buffer, incubated at 37° C. for 10 min, and centrifuged for 10 min at 40,000×g, finally the precipitates were re-suspended with the above buffer, aliquoted and stored at −80° C. for later use.
(2) Detection of Inhibitory Function of Tested Medicines on Binding of Crude Synaptosomes in Rats to [^3H]-MK-801
50 μg of rat crude synaptosomal proteins was added to all tubes respectively. A volume of 50 μl of MK-801 (dizocilpine) was added to a non-specific binding tube to achieve a final concentration of 100 μM, and the materials were reacted for 15 min in advance. 20 μL of control drug at corresponding concentration was added to the test tube for reaction for 15 min. A volume of 30 μl of labeled ligand [^3H]-MK-801 was successively added to all tubes to achieve a final concentration of 10 nM. All reaction tubes were supplemented to a volume of 200 μl with 50 mM Tris-HCl buffer (50 mM Tris-HCl, 5 mM MgCl2·6H2O, 1 mM EDTA, 0.5% (WN) BSA, 0.1% NaN3, pH 7.4). A reaction was carried out at 37° C. for 10 min. A type-49 glass fiber filter membrane was prepared and a sample was applied at the same time. The filter membrane was placed in a multi-head cell collector, and a reaction system was subjected to suction filtration under negative pressure and washed with an ice-cold 50 mM Tris-HCl buffer, 10 ml each time, for a total of 5 times. After suction drying, 1 ml of scintillation liquid was added to the filter membrane, the filter membrane was placed on a shaker for shaking for 1.5 h and then placed in a liquid scintillation counter on the next day to determine the radioactive intensity.
GraphPad5.0 software was used to analyze the data, and the percentage of competitive inhibition was calculated through nonlinear fitting, wherein:
Percentage of competitive inhibition %=((total binding tube cpm−compound cpm)/(total binding tube cpm−non-specific binding tube cpm))×100%;
Specific binding amount=total binding amount−non-specific binding amount, wherein each binding site was determined by double compound tubes.

Assay [2] addresses T1, NMDA receptor. Description: NMDA receptor agonistic properties in rat crude synaptosomal proteins (maximum [3H]-MK-801 binding vs 1 mM glycine). The class given is biochemical. The note with it: maximum [3H]-MK-801 binding % relative to 1 mM glycine; 50 μM glutamic acid. The method, then: as §1
(3) Detection of Influence of Tested Medicines on NMDA Receptor Agonistic Properties in Rat Crude Synaptosomal Proteins
100 μg of rat crude synaptosomal proteins was added to all tubes respectively. 50 μl of 5,7-dichlorokynurenic acid was added to a non-specific binding tube to achieve a final concentration of 10 μM. All tubes were preloaded with 50 μM of glutamic acid, and the materials were reacted for 15 min in advance. 20 μL of control drug at corresponding concentration was added to the test tube, and then reacted for 15 min. 1 mM glycine was added to the maximum reaction tube. A volume of 30 μl of labeled ligand [^3H]-MK-801 was successively added to all tubes to achieve a final concentration of 10 nM, and reacted for 15 min. All reaction tubes were supplemented to a volume of 500 μl with 50 mM Tris-HCl buffer (50 mM Tris-HCl, 5 mM MgCl2·6H2O, 1 mM EDTA, 0.5% (WN) BSA, 0.1% NaN3, pH 7.4). A reaction was carried out at 37° C. for 15 min. A type-49 glass fiber filter membrane was prepared and a sample was applied at the same time. The filter membrane was placed in a multi-head cell collector, and the reaction system was subjected to suction filtration under negative pressure and washed with an ice-cold 50 mM Tris-HCl buffer, 10 ml each time, for a total of 5 times. After suction drying, 1 ml of scintillation liquid was added to the filter membrane, the filter membrane was placed on the shaker for shaking for 1.5 h and then placed in the liquid scintillation counter on the next day to determine the radioactive intensity.
In an agonistic experiment, maximum [^3H]-MK-801 binding %=((tested compounds cpm−5,7 dichlorokynurenic acid cpm)/(1 mM glycine cpm−5,7 dichlorokynurenic acid cpm))×100%.

The mark [3] stands for this setting: affinity on NMDA, [3H]-MK-801 10 nM, rat prefrontal cortex and hippocampus crude synaptosomes, read-out: IC50.

Where two headings read alike, the source gives them in different places.

For orientation: IC50 means the concentration at which inhibition is half-maximal.

Turning to `CC(C)(C)OC(=O)N1CCCC2(C1)NCCS2` (stereo not drawn) [A-044], the concentration for half-maximal inhibition (IC50) at NMDA receptor [1] (setting [3]) turned out to be 0.66 nM. The “Maximum agonistic efficacy (%)” value on NMDA receptor [2] was 28%.
Regarding `C[C@@H](O)[C@H](N)C(=O)N1CCC2(CC1)N[C@H](C(=O)N1CCSCC1)CS2.Cl` [A-449], the concentration for half-maximal inhibition (IC50) at NMDA receptor [1] (setting [3]) worked out at 0.47 nM. The “Maximum agonistic efficacy (%)” value on NMDA receptor [2] is on record as 38%.
Take `CC(C)C(=O)N1CC2(C1)N[C@H](C(N)=O)CS2` [A-256]: the IC50 at NMDA receptor [1] (setting [3]) was found to be 0.89 nM. Besides, the “Maximum agonistic efficacy (%)” value on NMDA receptor [2] is 28%.
For `CC(C)C(=O)N1CCSC12CCN(C(=O)[C@@H](N)[C@@H](C)O)CC2.Cl` [A-114], in that order: 0.89 nM and 35%.
For `Cl.N[C@@H](CO)C(=O)N1CCC2(CC1)NCCS2` [A-035], at NMDA receptor [1] (setting [3]), the IC50 was determined as 0.88 nM. Further, the “Maximum agonistic efficacy (%)” value on NMDA receptor [2] amounted to 19%.
As for `CC(C)[C@H](N)C(=O)N1CCSC12CNC2.Cl` [A-329], on NMDA receptor [1], the 50% inhibitory concentration (IC50) turned out to be 0.73 nM. In addition, on NMDA receptor [2], the “Maximum agonistic efficacy (%)” value is 26%.
Regarding `NC(=O)C(CO)NC(=O)C1CSC2(CN(C(=O)C(N)CO)C2)N1` (stereo not drawn) [A-334], the half-maximal inhibitory concentration (IC50) at NMDA receptor [1] (setting [3]) is 0.38 nM. For the same compound, the “Maximum agonistic efficacy (%)” value on NMDA receptor [2] amounted to 34%.
As for `C[C@@H](O)[C@H](N)C(=O)N1CCCC2(C1)NCCS2.Cl` (stereo partly drawn) [A-048], the 50% inhibitory concentration (IC50) on NMDA receptor [1] (setting [3]) was 0.55 nM. Further, the “Maximum agonistic efficacy (%)” value on NMDA receptor [2] was 38%.
`CC(C)C(=O)N1CCSC12CNC2.Cl` [A-093] showed an IC50 at NMDA receptor [1] of 0.48 nM. Besides, the “Maximum agonistic efficacy (%)” value at NMDA receptor [2] turned out to be 65%.
As for `CC(C)C(=O)N1CCC2(CC1)SCCN2C(=O)[C@@H](N)[C@@H](C)O.Cl` [A-358], at NMDA receptor [1] (setting [3]), the concentration for half-maximal inhibition (IC50) worked out at 0.86 nM. At NMDA receptor [2], the “Maximum agonistic efficacy (%)” value was 78%.
For `CC(=O)N1CCSC12CCCN(C(=O)[C@@H](N)[C@@H](C)O)C2.Cl` (stereo partly drawn) [A-090], in that order: 0.45 nM and 36%.
On to `C[C@H](NC(=O)[C@@H]1CSC2(CN(C(=O)[C@@H](N)[C@@H](C)O)C2)N1)C(N)=O.Cl` [A-378], for which the half-inhibitory concentration (IC50) at NMDA receptor [1] (setting [3]) is 1.66 nM. Besides, the “Maximum agonistic efficacy (%)” value at NMDA receptor [2] turned out to be 49%.
For `CC(=O)N1CC2(C1)N[C@H](C(=O)N[C@@H](CO)C(N)=O)CS2` [A-333], in that order: 0.41 nM and 19%.
For `Cl.N#C[C@@H]1CSC2(CN(C(=O)[C@@H](N)CO)C2)N1` [A-303] the same measures were 0.24 nM and 35%.
For `Cl.N[C@@H](CO)C(=O)N1CCC2(CC1)N[C@H](C(=O)N1CCNCC1)CS2` [A-476] the same measures were 0.96 nM and 56%.
In the case of `CC(=O)N1CCC2(CC1)NCCS2` [A-031], on NMDA receptor [1] (setting [3]), the IC50 was determined as 0.35 nM. The “Maximum agonistic efficacy (%)” value on NMDA receptor [2] stood at 52%.
As to `CN1CCN(C(=O)[C@@H]2CSC3(CCCN(C(=O)[C@@H](N)CO)C3)N2)CC1.Cl` (stereo partly drawn) [A-463], the IC50 at NMDA receptor [1] (setting [3]) is 0.52 nM. In addition, on NMDA receptor [2], the “Maximum agonistic efficacy (%)” value is 59%.
For `C[C@@H](O)[C@H](N)C(=O)N1CCC2(CC1)N[C@H](C(=O)N1CCCCC1)CS2.Cl` [A-437] the same measures were 0.33 nM and 42%.
For `CC(=O)N1CCSC12CCN(C(=O)[C@@H](N)[C@@H](C)O)C2.Cl` (stereo partly drawn) [A-074], in that order: 0.89 nM and 38%.
For `CC(C)(C)OC(=O)N1CC2(C1)NCCS2` [A-002] the same measures were 0.33 nM and 45%.
For `CC(C)(C)OC(=O)N1CCC2(CC1)NCCS2` [A-030], the 50% inhibitory concentration (IC50) at NMDA receptor [1] (setting [3]) stood at 0.35 nM. Besides, the “Maximum agonistic efficacy (%)” value on NMDA receptor [2] was 39%.
In the case of `C[C@@H](O)[C@H](N)C(=O)N1CC2(C1)N[C@H](C(=O)N1CCOCC1)CS2.Cl` [A-409], on NMDA receptor [1] (setting [3]), the IC50 worked out at 0.56 nM. Besides, the “Maximum agonistic efficacy (%)” value at NMDA receptor [2] was found to be 36%.
Regarding `CC(C)[C@H](N)C(=O)N1CCC2(CC1)N[C@H](C(N)=O)CS2.Cl` [A-276], the half-inhibitory concentration (IC50) at NMDA receptor [1] (setting [3]) worked out at 0.25 nM. Further, the “Maximum agonistic efficacy (%)” value on NMDA receptor [2] is given as 28%.
For `Cl.N[C@@H](CO)C(=O)N1CC2(C1)N[C@H](C(=O)N1CCNCC1)CS2` [A-470] the same measures were 0.35 nM and 33%.
